# Results: article PMC6429214, “Design, Synthesis and Biological Evaluation of Isoxazole-Based CK1 Inhibitors Modified with Chiral Pyrrolidine Scaffolds” (Molecules, 2019)
# What was measured:
# Assay in all cases: 33PanQinase panel
# Format in all cases: biochemical
# PHKG1 = biological target: T1, PHKG1 (Homo sapiens, UniProt Q16816); conditions: PHKG1, 1 µM; read-out: Residual Activity (%)
# T1 construct: purchased ProQinase
# Description: (§1) Figure 5 Dendrogram representation of the selectivity profile of 29d at a concentration of 1 μM in a panel of 320 wild-type kinases (ProQinase, Freiburg, Germany). The residual kinase activity was determined compared to DMSO control. Images were generated using TREEspot Software Tool, DISCOVERX CORPORATION 2010.
# (§2) Figure S1. X-ray crystal structure of intermediate compound 25d (ORTEP drawing with ellipsoids at 30% probability). CCDC 1589043 contains the supplementary crystallographic data for this paper. The data can be obtained free of charge from The Cambridge Crystallographic Data Centre via www.ccdc.cam.ac.uk/structures.
# (§3) Table S1 Data collection, structure refinement and Ramachrandran plot results of protein crystallization of CK1δ in complex with compound 30a and 30b, respectively.
# (§4) Root-mean-square deviations
# (§5) Additionally allowed 2.6 2.2
# (§6) Table S2. Selectivity profile of compound 29d. The inhibitor has been screened at a concentration of 1 µM over a panel of 320 wild-type protein kinases by ProQinase GmbH (Freiburg, Germany) using an activity-based radiometric 33PanQinase® assay. Results are presented as percentage of residual kinase activity relative to […]
# (§7) control. The final DMSO concentration was 1 % in each reaction-mix. Classification of protein kinase families refers to Manning et al. (Manning, G.; Whyte, D. B.; Martinez, R.; Hunter, T.; Sudarsanam, S. The Protein Kinase Complement of the Human Genome. Science 2002, 298, 1912–1934): AGC = containing PKA, PKG, PKC families; […] = containing Cdk, MAPK, GSK3, CLK families; STE = homologs of yeast sterile 7, sterile 11, sterile 20 kinases; TK = tyrosine kinase; TKL = tyrosine kinase-like.
# (§8) Kinase name Kinase family Residual Activity (%)
# MEK2 = biological target: T2, MEK2 (Homo sapiens, UniProt P36507); conditions: MEK2, 1 µM; read-out: Residual Activity (%)
# T2 construct: purchased ProQinase
# T2 sequence (P36507 whole entry): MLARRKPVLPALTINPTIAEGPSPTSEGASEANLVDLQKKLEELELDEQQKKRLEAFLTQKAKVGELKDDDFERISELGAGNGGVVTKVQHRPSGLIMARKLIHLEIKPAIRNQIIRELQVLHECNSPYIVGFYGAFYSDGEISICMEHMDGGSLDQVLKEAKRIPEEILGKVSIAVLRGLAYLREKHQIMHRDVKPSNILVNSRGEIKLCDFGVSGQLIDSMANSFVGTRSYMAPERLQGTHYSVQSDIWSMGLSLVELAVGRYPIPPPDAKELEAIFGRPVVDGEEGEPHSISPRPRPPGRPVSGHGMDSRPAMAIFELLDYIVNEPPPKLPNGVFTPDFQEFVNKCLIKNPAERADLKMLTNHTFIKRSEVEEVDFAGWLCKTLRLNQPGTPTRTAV
# Description: as §1, §2, §3, §4, §5, §6, §7, §8
# TSF1 = biological target: T3, TSF1 (Homo sapiens, UniProt O75716); conditions: TSF1, 1 µM; read-out: Residual Activity (%)
# T3 construct: purchased ProQinase
# T3 sequence (O75716 whole entry): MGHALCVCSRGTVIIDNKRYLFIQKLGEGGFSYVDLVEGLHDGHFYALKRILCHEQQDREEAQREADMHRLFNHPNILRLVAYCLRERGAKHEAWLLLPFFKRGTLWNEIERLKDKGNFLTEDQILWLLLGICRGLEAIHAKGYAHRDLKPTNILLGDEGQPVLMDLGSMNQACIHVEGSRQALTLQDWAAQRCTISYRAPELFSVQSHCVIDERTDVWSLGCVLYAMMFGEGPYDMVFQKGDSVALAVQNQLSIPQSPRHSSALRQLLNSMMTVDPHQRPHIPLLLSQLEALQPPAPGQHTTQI
# Description: as §1, §2, §3, §4, §5, §6, §7, §8
# TGFB-R2 = biological target: T4, TGFB-R2 (Homo sapiens, UniProt P37173); conditions: TGFB-R2, 1 µM; read-out: Residual Activity (%)
# T4 construct: purchased ProQinase
# Description: as §1, §2, §3, §4, §5, §6, §7, §8
# PASK = biological target: T5, PASK (Homo sapiens, UniProt Q96RG2); conditions: read-out: Residual Activity (%)
# T5 construct: purchased ProQinase
# Description: as §1, §2, §3, §4, §5, §6, §7, §8
# CDK7/CycH/MAT1 = biological target: T6, CDK7/CycH/MAT1 (Homo sapiens, UniProt P50613); conditions: CDK7/CycH/MAT1, 1 µM; read-out: Residual Activity (%)
# T6 construct: purchased ProQinase
# T6 sequence (P50613 whole entry): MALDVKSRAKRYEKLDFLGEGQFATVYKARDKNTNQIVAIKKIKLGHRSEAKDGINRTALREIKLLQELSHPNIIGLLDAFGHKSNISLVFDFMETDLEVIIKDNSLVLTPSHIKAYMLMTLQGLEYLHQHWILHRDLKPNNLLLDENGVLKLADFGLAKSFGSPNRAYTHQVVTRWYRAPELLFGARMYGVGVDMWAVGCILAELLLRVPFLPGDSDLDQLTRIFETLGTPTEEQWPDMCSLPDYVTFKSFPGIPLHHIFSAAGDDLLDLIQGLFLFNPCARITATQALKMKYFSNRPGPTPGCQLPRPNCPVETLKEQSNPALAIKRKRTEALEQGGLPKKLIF
# T6 sequence (P51946 whole entry partner): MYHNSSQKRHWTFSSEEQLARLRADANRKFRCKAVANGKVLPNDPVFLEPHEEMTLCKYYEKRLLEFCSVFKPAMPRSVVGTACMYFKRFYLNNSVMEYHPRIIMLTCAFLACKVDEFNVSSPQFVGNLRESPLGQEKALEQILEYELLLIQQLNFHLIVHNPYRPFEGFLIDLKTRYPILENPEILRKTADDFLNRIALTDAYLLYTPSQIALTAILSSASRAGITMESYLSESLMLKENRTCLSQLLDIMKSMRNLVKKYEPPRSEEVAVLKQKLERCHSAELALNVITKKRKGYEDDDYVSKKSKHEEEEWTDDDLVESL
# T6 sequence (P51948 whole entry partner): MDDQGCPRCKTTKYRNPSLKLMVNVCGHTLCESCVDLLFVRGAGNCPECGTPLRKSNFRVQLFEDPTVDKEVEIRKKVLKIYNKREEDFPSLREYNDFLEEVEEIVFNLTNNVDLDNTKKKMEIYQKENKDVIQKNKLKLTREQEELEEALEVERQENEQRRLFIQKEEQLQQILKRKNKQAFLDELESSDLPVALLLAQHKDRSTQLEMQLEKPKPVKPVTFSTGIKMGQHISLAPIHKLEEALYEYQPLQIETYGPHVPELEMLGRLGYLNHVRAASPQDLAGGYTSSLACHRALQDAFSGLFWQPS
# Description: as §1, §2, §3, §4, §5, §6, §7, §8
# CK2-alpha2 = biological target: T7, CK2-alpha2 (Homo sapiens, UniProt P19784); conditions: CK2-alpha2, 1 µM; read-out: Residual Activity (%)
# T7 construct: purchased ProQinase
# Description: as §1, §2, §3, §4, §5, §6, §7, §8
# TLK1 = biological target: T8, TLK1 (Homo sapiens, UniProt Q9UKI8); conditions: TLK1, 1 µM; read-out: Residual Activity (%)
# T8 construct: purchased ProQinase
# Description: as §1, §2, §3, §4, §5, §6, §7, §8
# MAP3K1 = biological target: T9, MAP3K1 (Homo sapiens, UniProt Q13233); conditions: MAP3K1, 1 µM; read-out: Residual Activity (%)
# T9 construct: purchased ProQinase
# Description: as §1, §2, §3, §4, §5, §6, §7, §8
# EPHB2 = biological target: T10, EPHB2 (Homo sapiens, UniProt P29323); conditions: EPHB2, 1 µM; read-out: Residual Activity (%)
# T10 construct: purchased ProQinase
# T10 sequence (P29323 19-1055): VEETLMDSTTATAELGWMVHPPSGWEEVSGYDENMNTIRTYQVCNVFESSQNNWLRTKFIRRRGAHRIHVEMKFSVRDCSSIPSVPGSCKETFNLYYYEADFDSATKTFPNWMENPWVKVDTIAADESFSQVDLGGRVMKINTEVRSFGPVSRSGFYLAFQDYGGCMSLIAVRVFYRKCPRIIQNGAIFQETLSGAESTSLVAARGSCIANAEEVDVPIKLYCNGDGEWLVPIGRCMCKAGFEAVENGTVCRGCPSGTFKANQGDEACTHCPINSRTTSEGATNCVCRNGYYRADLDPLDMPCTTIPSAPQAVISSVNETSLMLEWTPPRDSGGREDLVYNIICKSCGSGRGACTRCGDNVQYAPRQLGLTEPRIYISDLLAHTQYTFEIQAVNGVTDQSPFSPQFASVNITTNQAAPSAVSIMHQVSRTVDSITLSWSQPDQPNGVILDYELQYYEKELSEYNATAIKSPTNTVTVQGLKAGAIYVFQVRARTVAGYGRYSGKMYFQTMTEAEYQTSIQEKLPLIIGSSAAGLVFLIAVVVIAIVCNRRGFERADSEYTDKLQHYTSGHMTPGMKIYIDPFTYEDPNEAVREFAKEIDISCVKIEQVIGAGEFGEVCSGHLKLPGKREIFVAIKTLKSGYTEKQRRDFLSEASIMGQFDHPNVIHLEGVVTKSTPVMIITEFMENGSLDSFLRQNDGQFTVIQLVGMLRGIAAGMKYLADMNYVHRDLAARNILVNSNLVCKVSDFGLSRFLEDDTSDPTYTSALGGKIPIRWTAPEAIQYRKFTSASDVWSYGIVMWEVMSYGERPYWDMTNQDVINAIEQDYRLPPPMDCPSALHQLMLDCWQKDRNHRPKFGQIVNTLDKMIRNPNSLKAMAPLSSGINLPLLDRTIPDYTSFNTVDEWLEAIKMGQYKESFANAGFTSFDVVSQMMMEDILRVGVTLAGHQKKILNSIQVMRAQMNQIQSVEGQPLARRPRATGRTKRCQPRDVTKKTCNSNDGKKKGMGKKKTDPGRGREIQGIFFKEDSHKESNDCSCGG
# Description: as §1, §2, §3, §4, §5, §6, §7, §8
# EPHA8 = biological target: T11, EPHA8 (Homo sapiens, UniProt P29322); conditions: EPHA8, 1 µM; read-out: Residual Activity (%)
# T11 construct: purchased ProQinase
# Description: as §1, §2, §3, §4, §5, §6, §7, §8
# MAP3K10 = biological target: T12, MAP3K10 (Homo sapiens, UniProt Q02779); conditions: MAP3K10, 1 µM; read-out: Residual Activity (%)
# T12 construct: purchased ProQinase
# Description: as §1, §2, §3, §4, §5, §6, §7, §8
# CDK9/CycT1 = biological target: T13, CDK9/CycT1 (Homo sapiens, UniProt P50750); conditions: CDK9/CycT1, 1 µM; read-out: Residual Activity (%)
# T13 construct: purchased ProQinase
# T13 sequence (P50750 whole entry): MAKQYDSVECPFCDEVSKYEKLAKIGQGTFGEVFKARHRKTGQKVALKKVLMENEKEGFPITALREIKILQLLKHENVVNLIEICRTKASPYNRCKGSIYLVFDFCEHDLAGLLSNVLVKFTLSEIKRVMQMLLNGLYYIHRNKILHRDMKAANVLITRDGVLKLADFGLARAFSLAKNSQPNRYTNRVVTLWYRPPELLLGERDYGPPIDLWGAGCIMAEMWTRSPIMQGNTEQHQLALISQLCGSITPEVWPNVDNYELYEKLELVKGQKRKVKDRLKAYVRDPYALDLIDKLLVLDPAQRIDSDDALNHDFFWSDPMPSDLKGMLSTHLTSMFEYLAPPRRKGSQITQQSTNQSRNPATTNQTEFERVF
# T13 sequence (O60563 whole entry partner): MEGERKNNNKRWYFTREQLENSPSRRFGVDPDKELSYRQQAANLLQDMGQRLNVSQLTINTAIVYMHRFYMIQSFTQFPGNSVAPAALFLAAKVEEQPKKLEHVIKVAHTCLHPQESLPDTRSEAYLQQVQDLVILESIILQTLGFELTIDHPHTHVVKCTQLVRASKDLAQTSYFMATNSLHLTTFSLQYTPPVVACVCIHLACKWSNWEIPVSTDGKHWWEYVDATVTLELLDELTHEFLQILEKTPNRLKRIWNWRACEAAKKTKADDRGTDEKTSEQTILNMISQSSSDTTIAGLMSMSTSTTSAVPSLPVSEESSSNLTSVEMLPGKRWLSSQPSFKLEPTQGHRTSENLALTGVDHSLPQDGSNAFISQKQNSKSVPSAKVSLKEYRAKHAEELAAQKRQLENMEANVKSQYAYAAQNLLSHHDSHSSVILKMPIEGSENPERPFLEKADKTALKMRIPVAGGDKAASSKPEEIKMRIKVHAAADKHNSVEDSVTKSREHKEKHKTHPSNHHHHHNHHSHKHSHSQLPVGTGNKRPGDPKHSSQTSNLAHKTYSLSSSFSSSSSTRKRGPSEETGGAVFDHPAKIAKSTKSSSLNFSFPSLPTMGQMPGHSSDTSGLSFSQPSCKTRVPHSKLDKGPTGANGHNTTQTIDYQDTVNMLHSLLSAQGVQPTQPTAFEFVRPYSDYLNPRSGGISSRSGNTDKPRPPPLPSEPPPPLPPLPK
# Description: as §1, §2, §3, §4, §5, §6, §7, §8
# COT = biological target: T14, COT (Homo sapiens, UniProt P41279); conditions: read-out: Residual Activity (%)
# T14 construct: purchased ProQinase
# Description: as §1, §2, §3, §4, §5, §6, §7, §8
# ERK7 = biological target: T15, ERK7 (Homo sapiens, UniProt Q8TD08); conditions: ERK7, 1 µM; read-out: Residual Activity (%)
# T15 construct: purchased ProQinase
# Description: as §1, §2, §3, §4, §5, §6, §7, §8
# CDK19/CycC = biological target: T16, CDK19/CycC (Homo sapiens, UniProt Q9BWU1); conditions: read-out: Residual Activity (%)
# T16 construct: purchased ProQinase
# Description: as §1, §2, §3, §4, §5, §6, §7, §8
# PKC-alpha = biological target: T17, PKC-alpha (Homo sapiens, UniProt P17252); conditions: read-out: Residual Activity (%)
# T17 construct: purchased ProQinase
# Description: as §1, §2, §3, §4, §5, §6, §7, §8
# RIPK5 = biological target: T18, RIPK5 (Homo sapiens, UniProt Q6XUX3); conditions: RIPK5, 1 µM; read-out: Residual Activity (%)
# T18 construct: purchased ProQinase
# Description: as §1, §2, §3, §4, §5, §6, §7, §8
# NEK4 = biological target: T19, NEK4 (Homo sapiens, UniProt P51957); conditions: NEK4, 1 µM; read-out: Residual Activity (%)
# T19 construct: purchased ProQinase
# Description: as §1, §2, §3, §4, §5, §6, §7, §8
# CAMK2G = biological target: T20, CAMK2G (Homo sapiens, UniProt Q13555); conditions: read-out: Residual Activity (%)
# T20 construct: purchased ProQinase
# Description: as §1, §2, §3, §4, §5, §6, §7, §8
# PAK7 = biological target: T21, PAK7 (Homo sapiens, UniProt Q9P286); conditions: PAK7, 1 µM; read-out: Residual Activity (%)
# T21 construct: purchased ProQinase
# T21 sequence (Q9P286 whole entry): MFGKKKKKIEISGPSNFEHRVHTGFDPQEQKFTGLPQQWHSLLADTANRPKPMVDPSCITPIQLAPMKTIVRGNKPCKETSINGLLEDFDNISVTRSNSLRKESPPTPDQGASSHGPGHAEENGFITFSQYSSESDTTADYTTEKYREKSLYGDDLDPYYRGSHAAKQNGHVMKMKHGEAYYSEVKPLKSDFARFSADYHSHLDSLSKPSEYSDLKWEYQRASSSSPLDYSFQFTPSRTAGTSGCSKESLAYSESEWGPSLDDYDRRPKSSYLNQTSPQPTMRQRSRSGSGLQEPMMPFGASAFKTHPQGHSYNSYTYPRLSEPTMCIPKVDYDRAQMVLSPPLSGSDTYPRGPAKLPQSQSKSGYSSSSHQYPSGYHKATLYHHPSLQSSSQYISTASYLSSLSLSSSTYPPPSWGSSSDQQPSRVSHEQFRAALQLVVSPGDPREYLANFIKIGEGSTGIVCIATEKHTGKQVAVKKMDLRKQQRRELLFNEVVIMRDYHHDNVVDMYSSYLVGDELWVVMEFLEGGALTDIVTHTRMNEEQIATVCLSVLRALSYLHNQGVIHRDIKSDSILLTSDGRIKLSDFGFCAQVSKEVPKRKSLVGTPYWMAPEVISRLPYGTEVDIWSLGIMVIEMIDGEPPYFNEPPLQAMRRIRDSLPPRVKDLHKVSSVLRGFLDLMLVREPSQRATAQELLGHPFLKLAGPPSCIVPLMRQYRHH
# Description: as §1, §2, §3, §4, §5, §6, §7, §8
# ARK5 = biological target: T22, ARK5 (Homo sapiens, UniProt O60285); conditions: ARK5, 1 µM; read-out: Residual Activity (%)
# T22 construct: purchased ProQinase
# Description: as §1, §2, §3, §4, §5, §6, §7, §8
# MKK7 = biological target: T23, MKK7 (Homo sapiens, UniProt O14733); conditions: MKK7, 1 µM; read-out: Residual Activity (%)
# T23 construct: purchased ProQinase
# Description: as §1, §2, §3, §4, §5, §6, §7, §8
# PKC-beta2 = biological target: T24, PKC-beta2 (Homo sapiens, UniProt P05771); conditions: PKC-beta2, 1 µM; read-out: Residual Activity (%)
# T24 construct: purchased ProQinase
# Description: as §1, §2, §3, §4, §5, §6, §7, §8
# PKC-theta = biological target: T25, PKC-theta (Homo sapiens, UniProt Q04759); conditions: read-out: Residual Activity (%)
# T25 construct: purchased ProQinase
# Description: as §1, §2, §3, §4, §5, §6, §7, §8
# AXL = biological target: T26, AXL (Homo sapiens, UniProt P30530); conditions: read-out: Residual Activity (%)
# T26 construct: purchased ProQinase
# Description: as §1, §2, §3, §4, §5, §6, §7, §8
# NEK9 = biological target: T27, NEK9 (Homo sapiens, UniProt Q8TD19); conditions: NEK9, 1 µM; read-out: Residual Activity (%)
# T27 construct: purchased ProQinase
# Description: as §1, §2, §3, §4, §5, §6, §7, §8
# T1 sequence (Q16816 whole entry): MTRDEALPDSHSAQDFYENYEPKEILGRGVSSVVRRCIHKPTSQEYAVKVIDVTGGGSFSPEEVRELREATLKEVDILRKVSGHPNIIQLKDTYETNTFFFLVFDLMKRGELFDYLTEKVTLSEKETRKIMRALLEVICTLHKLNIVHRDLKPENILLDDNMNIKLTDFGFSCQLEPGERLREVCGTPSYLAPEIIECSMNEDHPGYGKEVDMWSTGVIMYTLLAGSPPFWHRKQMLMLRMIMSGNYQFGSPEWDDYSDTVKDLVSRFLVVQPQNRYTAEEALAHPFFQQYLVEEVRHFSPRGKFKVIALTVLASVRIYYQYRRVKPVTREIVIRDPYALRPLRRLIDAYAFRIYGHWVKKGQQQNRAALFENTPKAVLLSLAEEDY
smiles,measurement,setting,value
COc1ccc(-c2cc(C(=O)Nc3cc(-c4c(-c5ccc(F)cc5)noc4C(C)C)ccn3)n(CC3NCC(O)C3O)c2)cc1 (stereo not drawn) [29d],remaining activity at 1 µM,PHKG1,90%
same,remaining activity at 1 µM,MEK2,108%
same,remaining activity at 1 µM,TSF1,86%
same,remaining activity at 1 µM,TGFB-R2,69%
same,remaining activity at 1 µM,PASK,99%
same,remaining activity at 1 µM,CDK7/CycH/MAT1,98%
same,remaining activity at 1 µM,CK2-alpha2,111%
same,remaining activity at 1 µM,TLK1,77%
same,remaining activity at 1 µM,MAP3K1,94%
same,remaining activity at 1 µM,EPHB2,88%
same,remaining activity at 1 µM,EPHA8,113%
same,remaining activity at 1 µM,MAP3K10,120%
same,remaining activity at 1 µM,CDK9/CycT1,103%
same,remaining activity at 1 µM,COT,89%
same,remaining activity at 1 µM,ERK7,102%
same,remaining activity at 1 µM,CDK19/CycC,84%
same,remaining activity at 1 µM,PKC-alpha,107%
same,remaining activity at 1 µM,RIPK5,99%
same,remaining activity at 1 µM,NEK4,108%
same,remaining activity at 1 µM,CAMK2G,119%
same,remaining activity at 1 µM,PAK7,97%
same,remaining activity at 1 µM,ARK5,100%
same,remaining activity at 1 µM,MKK7,95%
same,remaining activity at 1 µM,PKC-beta2,118%
same,remaining activity at 1 µM,PKC-theta,101%
same,remaining activity at 1 µM,AXL,110%
same,remaining activity at 1 µM,NEK9,91%
